The results in this text go back to PubChem BioAssay (NCI).

Values joined by “and” are separate entries in the source; they are usually repeats but may differ in a detail not shown here. Equal entries are not always repeated.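 96-well plates; 48 h exposure; 5 concentrations. Endpoints by linear interpolation between flanking doses. Not reached: highest tested concentration assigned. GI50 marks 50% less growth. Definition used: TGI = concentration required for complete inhibition of growth.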

The subject of one test is MALME-3M melanoma. The test can be described thus: NCI tumour cell line growth inhibition, 48 h.
On to `NC(=O)c1csc(C2OC(CO)C(O)C2O)n1` (configuration not stated), for which the TGI was above 7980 µM.

Consider `CCN(CC)CC1c2ccccc2C(CNc2ccccc2)N1C` (configuration not stated), for which the TGI is above 100 µM.

Consider `CC1(O)C=CC(=O)C=C1`, for which the TGI came out at 39.5 µM.

In the case of `CC(=O)Nc1ccc(SC#N)c2c(NC(C)=O)cccc12`, the TGI was above 100 µM.

For `Cc1ccc2c(C3Cc4ccccc4N3C(=O)/C=C\C(=O)O)c(C)[nH]c2c1` (configuration not stated), the TGI was above 100 µM.

`COc1ccc(C=O)c([N+](=O)[O-])c1` returned a TGI above 100 µM.

Take `CCOC(=O)C1C(=S)NC(=O)C1C#N` (configuration not stated): the TGI was above 100 µM.

The compound `O=C1CC(c2c[nH]c3ccccc23)C(=O)N1` (configuration not stated) showed a TGI above 100 µM.

As for `N#CC(=C1C=CC(=NO)C=C1)c1ccc(Cl)cc1`, the TGI came to 60.7 µM.

The compound `COc1cc2c(c(OC)c1OC)-c1ccc(SC)c(=O)cc1C(NC(=O)c1ccccc1)CC2` (configuration not stated) displayed a TGI of 32.7 µM.

Regarding `Cc1c(/C=N/N=C/c2[nH]c(C(=O)OC(C)(C)C)c(C)c2C)[nH]c(C(=O)OC(C)(C)C)c1C`, the TGI is above 100 µM.

The subject of another test is MCF7 breast. The test can be described thus: NCI tumour cell line growth inhibition, 48 h.
Turning to `Nc1nc(OCc2ccccc2)c2[nH]cnc2n1`, the GI50 was 41.9 µM and 41.8 µM; the TGI came out at 355 µM.

With `NC(=O)c1csc(C2OC(CO)C(O)C2O)n1` (configuration not stated), the GI50 was 76.3 µM and the TGI amounted to 7340 µM.

Another test concerns SW-620 colon. Description: NCI tumour cell line growth inhibition, 48 h.
In turn, `CC/C=C\C/C=C\C/C=C\CCCCCCCC(=O)OCC(O)CO` (configuration not stated) had a TGI above 96.4 µM.

`Cc1cccc(C)c1NC(=O)/C(=N/NC(N)=S)C(C)C(=O)c1ccc(Cl)cc1` (configuration not stated): the TGI was above 100 µM.

With `N#CC(C#N)=C1NC(=O)CC(=O)N1`, the TGI was above 100 µM.

As for `Nc1nc(OCc2ccccc2)c2[nH]cnc2n1`, the GI50 was 98.5 µM; the TGI was 400 µM and 289 µM.

With `Fc1ccc(C2SCc3nc4ccccc4n32)c(F)c1` (configuration not stated), the TGI is above 100 µM.

Consider `NC(=O)c1csc(C2OC(CO)C(O)C2O)n1` (configuration not stated), for which the GI50 was 30.6 µM and the TGI amounted to 5900 µM.

`CCN(CC)CC1c2ccccc2C(CNc2ccccc2)N1C` (configuration not stated): the TGI was above 100 µM.

`CC1(O)C=CC(=O)C=C1` had a TGI above 100 µM.

`CC(=O)Nc1ccc(SC#N)c2c(NC(C)=O)cccc12` gave a TGI above 100 µM.

`Cc1ccc(-c2nnc(-c3nn(-c4ccccc4)c4nc5ccccc5nc34)o2)cc1` displayed a TGI above 100 µM.

As to `Cc1ccc2c(C3Cc4ccccc4N3C(=O)/C=C\C(=O)O)c(C)[nH]c2c1` (configuration not stated), the TGI is above 100 µM.

In turn, `COc1ccc(C=O)c([N+](=O)[O-])c1` yielded a TGI above 100 µM.

Regarding `CCOC(=O)C1C(=S)NC(=O)C1C#N` (configuration not stated), the TGI is above 100 µM.

In the case of `CC#CCC1CCC(OCC)=CC1=O` (configuration not stated), the TGI is above 100 µM.

`O=C1CC(c2c[nH]c3ccccc23)C(=O)N1` (configuration not stated) came in with a TGI above 100 µM.

As for `N#CC(=C1C=CC(=NO)C=C1)c1ccc(Cl)cc1`, the TGI came to 24 µM.

Compound `COc1cc2c(c(OC)c1OC)-c1ccc(SC)c(=O)cc1C(NC(=O)c1ccccc1)CC2` (configuration not stated) yielded a TGI of 34.7 µM.

In turn, `Cc1c(/C=N/N=C/c2[nH]c(C(=O)OC(C)(C)C)c(C)c2C)[nH]c(C(=O)OC(C)(C)C)c1C` registered a TGI above 100 µM.

In another test the test system is T-47D breast. Description: NCI tumour cell line growth inhibition, 48 h.
Take `Nc1nc(OCc2ccccc2)c2[nH]cnc2n1`: the GI50 is 24.9 µM and 23.2 µM; the TGI turned out to be 205 µM.

Compound `NC(=O)c1csc(C2OC(CO)C(O)C2O)n1` (configuration not stated) yielded a TGI above 5620 µM.

In turn, `COc1cc2c(c(OC)c1OC)-c1ccc(SC)c(=O)cc1C(NC(=O)c1ccccc1)CC2` (configuration not stated) yielded a TGI above 100 µM.

For the next test, the system named is TK-10 renal. The test can be described thus: NCI tumour cell line growth inhibition, 48 h.
For the compound `CC/C=C\C/C=C\C/C=C\CCCCCCCC(=O)OCC(O)CO` (configuration not stated), the TGI was above 100 µM.

As to `Cc1cccc(C)c1NC(=O)/C(=N/NC(N)=S)C(C)C(=O)c1ccc(Cl)cc1` (configuration not stated), the TGI is above 100 µM.

`N#CC(C#N)=C1NC(=O)CC(=O)N1` registered a TGI above 100 µM.

As to `Nc1nc(OCc2ccccc2)c2[nH]cnc2n1`, the GI50 was 56.4 µM and 11.7 µM; the TGI is 183 µM and 104 µM.

As for `Fc1ccc(C2SCc3nc4ccccc4n32)c(F)c1` (configuration not stated), the TGI was above 100 µM.

In the case of `NC(=O)c1csc(C2OC(CO)C(O)C2O)n1` (configuration not stated), the GI50 was above 74.5 µM and the TGI was above 10000 µM.

Compound `CCN(CC)CC1c2ccccc2C(CNc2ccccc2)N1C` (configuration not stated) returned a TGI above 100 µM.

The compound `CC1(O)C=CC(=O)C=C1` returned a TGI above 93 µM.

In turn, `CC(=O)Nc1ccc(SC#N)c2c(NC(C)=O)cccc12` yielded a TGI above 100 µM.

`Cc1ccc(-c2nnc(-c3nn(-c4ccccc4)c4nc5ccccc5nc34)o2)cc1` displayed a TGI of 31.2 µM.

As for `Cc1ccc2c(C3Cc4ccccc4N3C(=O)/C=C\C(=O)O)c(C)[nH]c2c1` (configuration not stated), the TGI was above 100 µM.

For `COc1ccc(C=O)c([N+](=O)[O-])c1`, the TGI was above 100 µM.

On to `CCOC(=O)C1C(=S)NC(=O)C1C#N` (configuration not stated), for which the TGI was above 100 µM.

The compound `CC#CCC1CCC(OCC)=CC1=O` (configuration not stated) yielded a TGI above 100 µM.

Compound `O=C1CC(c2c[nH]c3ccccc23)C(=O)N1` (configuration not stated) gave a TGI above 100 µM.

For `N#CC(=C1C=CC(=NO)C=C1)c1ccc(Cl)cc1`, the TGI turned out to be 75 µM.

`COc1cc2c(c(OC)c1OC)-c1ccc(SC)c(=O)cc1C(NC(=O)c1ccccc1)CC2` (configuration not stated) came in with a TGI of 64.4 µM.

For `Cc1c(/C=N/N=C/c2[nH]c(C(=O)OC(C)(C)C)c(C)c2C)[nH]c(C(=O)OC(C)(C)C)c1C`, the TGI is above 100 µM.

The test system of another test is UACC-257 melanoma. Description: NCI tumour cell line growth inhibition, 48 h.
With `CC/C=C\C/C=C\C/C=C\CCCCCCCC(=O)OCC(O)CO` (configuration not stated), the TGI was above 100 µM.

Compound `Cc1cccc(C)c1NC(=O)/C(=N/NC(N)=S)C(C)C(=O)c1ccc(Cl)cc1` (configuration not stated) came in with a TGI above 100 µM.

In the case of `N#CC(C#N)=C1NC(=O)CC(=O)N1`, the TGI was above 100 µM.

For `Nc1nc(OCc2ccccc2)c2[nH]cnc2n1`, the GI50 was 39.8 µM and 157 µM; the TGI is 400 µM and 736 µM.

The compound `Fc1ccc(C2SCc3nc4ccccc4n32)c(F)c1` (configuration not stated) had a TGI above 100 µM.

Consider `NC(=O)c1csc(C2OC(CO)C(O)C2O)n1` (configuration not stated), for which the TGI was above 10000 µM.

For `CCN(CC)CC1c2ccccc2C(CNc2ccccc2)N1C` (configuration not stated), the TGI is above 100 µM.

Turning to `CC1(O)C=CC(=O)C=C1`, the TGI was found to be 34.2 µM.

The compound `CC(=O)Nc1ccc(SC#N)c2c(NC(C)=O)cccc12` returned a TGI above 100 µM.

`Cc1ccc(-c2nnc(-c3nn(-c4ccccc4)c4nc5ccccc5nc34)o2)cc1`: the TGI was above 100 µM.

`Cc1ccc2c(C3Cc4ccccc4N3C(=O)/C=C\C(=O)O)c(C)[nH]c2c1` (configuration not stated) came in with a TGI above 100 µM.

`COc1ccc(C=O)c([N+](=O)[O-])c1` returned a TGI above 100 µM.

`CCOC(=O)C1C(=S)NC(=O)C1C#N` (configuration not stated): the TGI was above 100 µM.

On to `CC#CCC1CCC(OCC)=CC1=O` (configuration not stated), for which the TGI was above 100 µM.

`O=C1CC(c2c[nH]c3ccccc23)C(=O)N1` (configuration not stated) showed a TGI above 100 µM.

Consider `COc1cc2c(c(OC)c1OC)-c1ccc(SC)c(=O)cc1C(NC(=O)c1ccccc1)CC2` (configuration not stated), for which the TGI is 18.4 µM.

`Cc1c(/C=N/N=C/c2[nH]c(C(=O)OC(C)(C)C)c(C)c2C)[nH]c(C(=O)OC(C)(C)C)c1C` registered a TGI above 100 µM.

A further test deals with UACC-62 melanoma. Description: NCI tumour cell line growth inhibition, 48 h.
Take `CC/C=C\C/C=C\C/C=C\CCCCCCCC(=O)OCC(O)CO` (configuration not stated): the TGI was above 100 µM.

`Cc1cccc(C)c1NC(=O)/C(=N/NC(N)=S)C(C)C(=O)c1ccc(Cl)cc1` (configuration not stated) showed a TGI above 100 µM.

`N#CC(C#N)=C1NC(=O)CC(=O)N1` registered a TGI above 100 µM.

Consider `Nc1nc(OCc2ccccc2)c2[nH]cnc2n1`, for which the GI50 was 25 µM and 17.3 µM; the TGI is 128 µM and 90.7 µM.

Compound `Fc1ccc(C2SCc3nc4ccccc4n32)c(F)c1` (configuration not stated) showed a TGI above 100 µM.

For `NC(=O)c1csc(C2OC(CO)C(O)C2O)n1` (configuration not stated), the GI50 is above 79.7 µM and the TGI stood at 4960 µM.

Take `CCN(CC)CC1c2ccccc2C(CNc2ccccc2)N1C` (configuration not stated): the TGI is above 100 µM.

As to `CC1(O)C=CC(=O)C=C1`, the TGI is 36.2 µM.

Consider `CC(=O)Nc1ccc(SC#N)c2c(NC(C)=O)cccc12`, for which the TGI is above 100 µM.

For `Cc1ccc(-c2nnc(-c3nn(-c4ccccc4)c4nc5ccccc5nc34)o2)cc1`, the TGI worked out at 30.8 µM.

`Cc1ccc2c(C3Cc4ccccc4N3C(=O)/C=C\C(=O)O)c(C)[nH]c2c1` (configuration not stated) came in with a TGI of 97.6 µM.

Compound `COc1ccc(C=O)c([N+](=O)[O-])c1` displayed a TGI above 100 µM.

For the compound `CCOC(=O)C1C(=S)NC(=O)C1C#N` (configuration not stated), the TGI is above 100 µM.

For the compound `CC#CCC1CCC(OCC)=CC1=O` (configuration not stated), the TGI was above 100 µM.

Compound `O=C1CC(c2c[nH]c3ccccc23)C(=O)N1` (configuration not stated) had a TGI above 100 µM.

In turn, `N#CC(=C1C=CC(=NO)C=C1)c1ccc(Cl)cc1` showed a TGI of 21 µM.

Turning to `COc1cc2c(c(OC)c1OC)-c1ccc(SC)c(=O)cc1C(NC(=O)c1ccccc1)CC2` (configuration not stated), the TGI was determined as 36.7 µM.

`Cc1c(/C=N/N=C/c2[nH]c(C(=O)OC(C)(C)C)c(C)c2C)[nH]c(C(=O)OC(C)(C)C)c1C` displayed a TGI above 100 µM.
